# Reference: PubChem BioAssay AID2740 (NMMLSC, 2010)
# Active and inactive are the calls of the source.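 The calls were made as follows: active = compounds whose fitted half-maximal concentration for changing the GFP signal is at or below a set limit; inactive = the rest.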
# Assay: TOR pathway RPL19A-GFP modulators, concentration series – cell-based, S. cerevisiae, flow cytometry, MLPCN hits, dose response (AID 2740);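 also: background is signal of the same compound in parental non-GFP s288c yeast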
# Conditions: S. cerevisiae RPL19A-GFP strain, flow cytometry fluorescence, 3 h; at 33 µM (top of the series)
row,Structure (SMILES),"GFP fluorescence, lower = active (kMESF (background-subtracted))"
1,CCCCc1ccc(/C=C2/C(=O)ON=C2c2ccccc2)s1,44.1 (inactive)
2,Cc1cc(=O)n2c3c(sc2n1)C(=O)N(Cc1ccccc1)C3=O,42.5 (inactive)
3,CCOC(=O)CSC1=NC(=O)/C(=C/c2ccc(OC)cc2)S1,43.8 (inactive)
4,CCN(CC(=O)Nc1cc(S(=O)(=O)N2CCOCC2)ccc1Cl)Cc1ccccc1,43.2 (inactive)
5,Cc1ccccc1[C@@]1(C)ON(c2ccccc2C(F)(F)F)C1=O,40.6 (inactive)
6,O=[N+]([O-])c1cc(O)c2ncccc2c1,45 (inactive)
7,Cc1nc2ccc(NC(=O)c3oc4ccc(F)cc4c3C)cc2s1,39 (inactive)
8,COc1ccc(C(=O)NC(=S)NNC(=O)CCc2ccccc2)cc1,46.5 (inactive)
9,O=c1c2cc(Br)ccc2nc(-c2ccc([N+](=O)[O-])cc2)n1O,15.6 (inactive)
10,O=C1c2ccccc2C(=O)N1OS(=O)(=O)c1ccc(F)cc1,37.2 (inactive)
11,CCN1C(=O)/C(=C\C(=O)c2cccs2)c2cc(Br)ccc21,34.5 (inactive)
12,[O-][n+]1cccc2c(Br)cc(Br)c(O)c21,42.9 (inactive)
13,COc1ccc(/C=C/C(=O)c2cc(Br)ccc(=O)c2O)cc1,-35.7 (inactive)
14,Cc1ccc(NC(=O)ON=C2CCCC2)cc1,39.3 (inactive)
15,O=C(O)c1cccc(S(=O)(=O)Nc2ccc(S(=O)(=O)N3CCOCC3)cc2)c1,38.7 (inactive)
16,COc1ccc(N2C(=O)CC(Sc3ncn[nH]3)C2=O)c(OC)c1 (stereo unspecified),42.2 (inactive)
17,COc1ccccc1N1C(=O)c2cccc3c(C(=O)O)ccc(c23)C1=O,44.8 (inactive)
18,Cc1ccc2nc(/C(C#N)=C/c3ccc(O)c(O)c3)[nH]c2c1,43.8 (inactive)
19,O=C(O)c1ccc(COc2ccccc2C=C2C(=O)c3ccccc3C2=O)cc1,38.9 (inactive)
20,COc1ccc(/C=C2\C(=O)ON=C2c2ccccc2)cc1,24.9 (inactive)
21,O=C1/C(=C\c2ccc(O)c(O)c2)SC(=S)N1Cc1ccccc1,1.52 (inactive)

row,Structure (SMILES),"GFP fluorescence, lower = active (kMESF (background-subtracted))"
1,O=C(Nc1nc(-c2ccccn2)cs1)C1COc2ccccc2O1 (stereo unspecified),21.1 (inactive)
2,Cc1ccc(C(c2cc(Cl)c3cccnc3c2O)N2CCN(C)CC2)cc1 (stereo unspecified),29.8 (inactive)
3,COc1cc(/C=C2\C(=O)N(CCC#N)N=C2C)c(Br)cc1OC(C)C,39.9 (inactive)
4,O=C(Nc1nnc(-c2ccc(Cl)cc2)o1)c1ccccc1Br,37 (inactive)
5,CC1(C)OC(c2ccccc2)=C/C(=C/C=C2C(=O)NC(=S)NC2=O)O1,37 (inactive)
6,CCc1ccc(/C=C/C(=O)c2cc(Br)ccc(=O)c2O)cc1,40.6 (inactive)
7,O=C(Oc1c(Cl)cc(Cl)c2cccnc12)c1cccs1,36.1 (inactive)
8,Cc1cccc(Nc2nc(-c3ccccn3)cs2)n1,29.8 (inactive)
9,COCCN1C(=O)/C(=C/c2ccc(N3CCCC3)cc2C)SC1=S,43 (inactive)
10,CC(=O)Oc1cccc(N2C(=O)c3cccc4c([N+](=O)[O-])ccc(c34)C2=O)c1,39.5 (inactive)
11,C#CCOc1c(Br)cc(/C=C2/C(=O)ON=C2C)cc1OC,32.9 (inactive)
12,O=C(OCC(=O)N1CCN(C(=O)c2ccco2)CC1)c1cc(-c2ccc(Cl)c(Cl)c2Cl)nc2ccccc12,31.8 (inactive)
13,CC(=O)[C@]1(O)Cc2c(O)c3c(c(O)c2[C@@H](O[C@H]2C[C@H](N)[C@H](O)[C@H](C)O2)C1)C(=O)c1ccccc1C3=O,42 (inactive)
14,COc1ccccc1C(=O)NNC(=S)NC(=O)c1ccco1,35.5 (inactive)
15,CCC(=O)Nc1ccc(NC(=O)c2cc3ccccc3o2)c(OC)c1,40.4 (inactive)
16,CC(C)[C@]1(c2ccccc2)ON(c2ccccc2C(F)(F)F)C1=O,36 (inactive)
17,O=[N+]([O-])c1ccc(-c2cn3nc(-c4ccccc4)c(-c4ccccc4)nc3n2)cc1,48.8 (inactive)
18,CCSc1nnc(NC(=O)c2ccccn2)s1,50 (inactive)
19,N=C1/C(=C\c2coc3ccccc3c2=O)C(=O)N=C2SC(c3ccncc3)=NN12,25.5 (inactive)
20,Cc1cccc(NC(c2ccc(C)s2)c2ccc3ccc(C)nc3c2O)n1 (stereo unspecified),31.2 (inactive)
